# Where “and” joins values, the source holds several entries; their conditions need not be identical. Identical values can stand only once. Peptide text beside a SMILES is read from it.
# Assays:
# insulin receptor = target: T1, insulin receptor (Homo sapiens, UniProt P06213); assay: Insulin receptor competition binding assay (scintillation proximity); settings: Table 9; for Ratio: IGF-1 receptor vs insulin receptor binding
# T1 construct: expressed in transfected cells; plasma membrane fragments
# T1 sequence (P06213 28-758 limits assumed): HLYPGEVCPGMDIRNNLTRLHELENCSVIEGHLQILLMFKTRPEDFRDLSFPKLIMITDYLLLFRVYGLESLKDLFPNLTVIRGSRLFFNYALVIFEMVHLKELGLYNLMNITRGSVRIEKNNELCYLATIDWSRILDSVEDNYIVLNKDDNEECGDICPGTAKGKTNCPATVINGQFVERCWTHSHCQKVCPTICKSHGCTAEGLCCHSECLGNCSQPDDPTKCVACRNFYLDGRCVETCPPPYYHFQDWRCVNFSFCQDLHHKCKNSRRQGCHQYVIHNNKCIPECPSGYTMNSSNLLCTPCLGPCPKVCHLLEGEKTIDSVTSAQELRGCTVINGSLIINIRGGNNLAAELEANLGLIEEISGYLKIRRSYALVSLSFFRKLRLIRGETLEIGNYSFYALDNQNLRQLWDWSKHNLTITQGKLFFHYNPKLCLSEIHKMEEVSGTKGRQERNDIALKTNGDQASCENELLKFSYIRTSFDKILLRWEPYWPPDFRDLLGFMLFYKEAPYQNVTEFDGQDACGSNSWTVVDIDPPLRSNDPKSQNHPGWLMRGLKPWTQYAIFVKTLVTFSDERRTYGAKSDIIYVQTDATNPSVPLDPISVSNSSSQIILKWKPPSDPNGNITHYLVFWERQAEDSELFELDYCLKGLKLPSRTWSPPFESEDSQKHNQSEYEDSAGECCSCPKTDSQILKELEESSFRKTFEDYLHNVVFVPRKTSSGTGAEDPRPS
# T1 sequence (P06213 763-1382 limits assumed): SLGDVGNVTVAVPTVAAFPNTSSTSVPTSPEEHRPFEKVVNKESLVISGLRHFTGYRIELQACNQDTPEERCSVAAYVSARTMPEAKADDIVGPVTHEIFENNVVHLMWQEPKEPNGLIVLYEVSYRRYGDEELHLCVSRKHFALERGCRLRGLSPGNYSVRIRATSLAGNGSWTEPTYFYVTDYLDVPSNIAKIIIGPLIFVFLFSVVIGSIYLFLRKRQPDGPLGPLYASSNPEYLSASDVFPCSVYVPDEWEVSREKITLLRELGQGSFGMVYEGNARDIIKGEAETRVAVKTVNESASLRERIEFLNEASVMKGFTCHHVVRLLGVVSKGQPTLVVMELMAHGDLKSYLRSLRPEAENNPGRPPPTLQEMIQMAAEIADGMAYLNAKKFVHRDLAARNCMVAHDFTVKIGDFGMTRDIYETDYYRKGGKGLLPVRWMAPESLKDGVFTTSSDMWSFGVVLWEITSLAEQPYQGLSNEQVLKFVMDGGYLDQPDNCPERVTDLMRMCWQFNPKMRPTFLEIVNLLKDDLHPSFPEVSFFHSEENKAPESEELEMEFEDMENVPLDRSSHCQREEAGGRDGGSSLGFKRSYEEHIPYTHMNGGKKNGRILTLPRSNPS
# [1] = Dipeptide cleavage from prodrug forms of IGF1 peptides in PBS; format: physicochemical; settings: pH 7.4 at 37° C.
# Experimental: The rate of cleavage was determined for the respective propeptides. The concentrations of the propeptides and the model parent peptide were determined by their respective peak areas. The first order dissociation rate constants of the prodrugs were determined by plotting the logarithm of the concentration of the prodrug at various time intervals. The slope of this plot provides the rate constant ‘k’.
# The IGF^B16B17 derivative peptide prodrugs were incubated in PBS, pH 7.4 at 37° C. and at predetermined time intervals an aliquot was taken and further degredation was quenched with 0.1% TFA and the aliquot was subjected to analytical HPLC analysis.
# [2] = Rate of model dipeptide cleavage in PBS (model hexapeptide); settings: Table 2, dipeptide on side chain of N-terminal para-amino-Phe of HSRGTF-NH2
# Experimental: The rate of cleavage was determined for the respective propeptides. The concentrations of the propeptides and the model parent peptide were determined by their respective peak areas. […] The slope of this plot provides the rate constant ‘k’.
# IGF-1 receptor = target: T2, IGF-1 receptor (Homo sapiens, UniProt P08069); assay: IGF-1 receptor competition binding assay (scintillation proximity); settings: Table 9
# T2 construct: expressed in transfected cells; plasma membrane fragments
# T2 sequence (P08069 31-736 limits assumed): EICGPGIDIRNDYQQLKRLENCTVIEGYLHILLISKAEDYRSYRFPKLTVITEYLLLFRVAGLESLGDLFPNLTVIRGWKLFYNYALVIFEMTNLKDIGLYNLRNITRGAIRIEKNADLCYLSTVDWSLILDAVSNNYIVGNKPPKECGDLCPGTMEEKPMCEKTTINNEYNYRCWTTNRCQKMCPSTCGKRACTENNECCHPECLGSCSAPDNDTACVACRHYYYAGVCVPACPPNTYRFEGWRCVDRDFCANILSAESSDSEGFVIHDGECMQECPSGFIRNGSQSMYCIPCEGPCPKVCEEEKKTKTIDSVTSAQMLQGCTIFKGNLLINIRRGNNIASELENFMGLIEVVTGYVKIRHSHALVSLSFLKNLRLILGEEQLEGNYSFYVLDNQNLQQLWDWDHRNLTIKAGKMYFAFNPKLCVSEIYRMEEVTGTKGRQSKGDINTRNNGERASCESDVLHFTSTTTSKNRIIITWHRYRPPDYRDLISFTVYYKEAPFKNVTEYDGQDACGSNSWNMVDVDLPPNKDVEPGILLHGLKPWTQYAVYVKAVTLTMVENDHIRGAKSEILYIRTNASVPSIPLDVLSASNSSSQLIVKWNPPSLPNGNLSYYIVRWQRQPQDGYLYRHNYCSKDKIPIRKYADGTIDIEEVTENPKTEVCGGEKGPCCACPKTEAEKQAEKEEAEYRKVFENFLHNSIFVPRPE
# T2 sequence (P08069 741-1367 limits assumed): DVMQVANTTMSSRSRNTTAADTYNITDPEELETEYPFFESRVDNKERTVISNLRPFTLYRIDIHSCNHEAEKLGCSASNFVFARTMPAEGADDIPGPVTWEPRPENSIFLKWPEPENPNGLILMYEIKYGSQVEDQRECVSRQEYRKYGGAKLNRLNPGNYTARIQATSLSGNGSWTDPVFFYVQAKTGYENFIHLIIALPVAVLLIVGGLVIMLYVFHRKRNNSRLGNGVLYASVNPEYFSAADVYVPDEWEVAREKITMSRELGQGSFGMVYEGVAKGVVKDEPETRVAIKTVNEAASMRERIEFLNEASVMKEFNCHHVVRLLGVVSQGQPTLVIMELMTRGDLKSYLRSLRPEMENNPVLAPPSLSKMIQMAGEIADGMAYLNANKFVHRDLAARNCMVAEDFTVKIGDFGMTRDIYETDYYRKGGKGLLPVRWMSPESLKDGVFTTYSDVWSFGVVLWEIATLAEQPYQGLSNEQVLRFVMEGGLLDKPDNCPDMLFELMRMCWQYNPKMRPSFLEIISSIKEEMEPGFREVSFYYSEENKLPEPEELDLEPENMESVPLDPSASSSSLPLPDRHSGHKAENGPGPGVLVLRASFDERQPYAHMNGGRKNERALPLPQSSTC
# [3] = cited from earlier work
# [4] = cited from earlier work; remark: listed apart in the source
# [5] = in vivo; cited from earlier work
compound,measurement,setting,value
CC[C@H](C)[C@H](NC(=O)CN)C(=O)N[C@H](C(=O)N[C@@H](CC(=O)O)C(=O)N[C@@H](CCC(=O)O)C(=O)N[C@H]1CSSC[C@@H]2NC(=O)[C@H](CO)NC(=O)[C@H](CCCNC(=N)N)NC(=O)[C@H](Cc3ccccc3)NC(=O)[C@H](CSSC[C@H](NC(=O)[C@H](CC(C)C)NC(=O)[C@@H](NC(=O)[C@H](CCC(=O)O)NC(=O)[C@@H]3CCCN3C(=O)CN)[C@@H](C)O)C(=O)NCC(=O)N[C@@H](CO)C(=O)N[C@@H](Cc3c[nH]cn3)C(=O)N[C@@H](CC(C)C)C(=O)N[C@@H](C(C)C)C(=O)N[C@@H](CCC(=O)O)C(=O)N[C@@H](C)C(=O)N[C@@H](CC(C)C)C(=O)N[C@@H](Cc3ccc(O)cc3)C(=O)N[C@@H](CC(C)C)C(=O)N[C@@H](C(C)C)C(=O)N[C@H](C(=O)NCC(=O)N[C@@H](CC(=O)O)C(=O)N[C@@H](CCCNC(=N)N)C(=O)NCC(=O)N[C@@H](Cc3ccccc3)C(=O)N[C@@H](Cc3ccc(O)cc3)C(=O)N[C@@H](Cc3ccccc3)C(=O)N[C@@H](CC(N)=O)C(=O)N[C@@H](CCCCN)C(=O)N3CCC[C@H]3C(=O)N[C@H](C(N)=O)[C@@H](C)O)CSSC[C@@H](C(=O)N[C@@H](C)C(N)=O)NC(=O)[C@H](Cc3ccc(O)cc3)NC(=O)[C@H](CCSC)NC(=O)[C@H](CCC(=O)O)NC(=O)[C@H](CC(C)C)NC(=O)[C@H](CCCNC(=N)N)NC(=O)[C@H](CCCNC(=N)N)NC(=O)[C@H](CC(C)C)NC(=O)[C@H](CC(=O)O)NC2=O)NC1=O)C(C)C,Ratio,insulin receptor,82.6
"CC[C@H](C)[C@H](NC(=O)CN)C(=O)N[C@H](C(=O)N[C@@H](CC(=O)O)C(=O)N[C@@H](CCC(=O)O)C(=O)N[C@@H](C)C(=O)N[C@@H](C)C(=O)N[C@@H](Cc1ccccc1)C(=O)N[C@@H](CCCNC(=N)N)C(=O)N[C@@H](CO)C(=O)N[C@@H](C)C(=O)N[C@@H](CC(=O)O)C(=O)N[C@@H](CC(C)C)C(=O)N[C@@H](CCCNC(=N)N)C(=O)N[C@@H](CCCNC(=N)N)C(=O)N[C@@H](CC(C)C)C(=O)N[C@@H](CCC(=O)O)C(=O)N[C@@H](CCSC)C(=O)N[C@@H](Cc1ccc(NC(=O)[C@@H]2CCCN2C(=O)C(C)(C)N)cc1)C(=O)N[C@@H](C)C(=O)N[C@@H](C)C(N)=O)C(C)C [AiB Pro] (HELM PEPTIDE1{G.I.V.D.E.A.A.F.R.S.A.D.L.R.R.L.E.M.[O=C([C@H](Cc1ccc(N[*:3])cc1)N[*:1])[*:2]].A.A.[am]}|PEPTIDE2{[Aib].P}$PEPTIDE1,PEPTIDE2,19:R3-2:R2$$$V2.0)",dipeptide cleavage / conversion to active form (in words),[1],"spontaneous, non-enzymatic conversion"
C[C@@H](O)[C@H](NC(=O)CNC(=O)[C@H](CCCNC(=N)N)NC(=O)[C@H](CO)NC(=O)[C@H](Cc1c[nH]cn1)NC(=O)[C@@H](N)Cc1ccc(NC(=O)CNC(=O)CN)cc1)C(=O)N[C@@H](Cc1ccccc1)C(N)=O [Compound 18],t1/2 (result in words),[2],No cleavage
C[C@@H](O)[C@H](NC(=O)CNC(=O)[C@H](CCCNC(=N)N)NC(=O)[C@H](CO)NC(=O)[C@H](Cc1c[nH]cn1)NC(=O)[C@@H](N)Cc1ccc(NC(=O)CNC(=O)CO)cc1)C(=O)N[C@@H](Cc1ccccc1)C(N)=O [Compound 19],t1/2 (result in words),[2],No cleavage
CC[C@H](C)[C@H](NC(=O)CN)C(=O)N[C@H](C(=O)N[C@@H](CC(=O)O)C(=O)N[C@@H](CCC(=O)O)C(=O)N[C@H]1CSSC[C@@H]2NC(=O)[C@H](CO)NC(=O)[C@H](CCCNC(=N)N)NC(=O)[C@H](Cc3ccccc3)NC(=O)[C@H](CSSC[C@H](NC(=O)[C@H](CC(C)C)NC(=O)[C@H](Cc3c[nH]cn3)NC(=O)[C@H](CCC(=O)O)NC(=O)[C@@H]3CCCN3C(=O)CN)C(=O)NCC(=O)N[C@@H](C)C(=O)N[C@@H](CC(=O)O)C(=O)N[C@@H](CC(C)C)C(=O)N[C@@H](C(C)C)C(=O)N[C@@H](CC(=O)O)C(=O)N[C@@H](C)C(=O)N[C@@H](CC(C)C)C(=O)N[C@@H](Cc3ccc(O)cc3)C(=O)N[C@@H](CC(C)C)C(=O)N[C@@H](C(C)C)C(=O)N[C@H](C(=O)NCC(=O)N[C@@H](CC(=O)O)C(=O)N[C@@H](CCCNC(=N)N)C(=O)NCC(=O)N[C@@H](Cc3ccccc3)C(=O)N[C@@H](Cc3ccc(O)cc3)C(N)=O)CSSC[C@@H](C(=O)N[C@@H](C)C(N)=O)NC(=O)[C@H](Cc3ccc(O)cc3)NC(=O)[C@H](CC[S+](C)[O-])NC(=O)[C@H](CCC(=O)O)NC(=O)[C@H](CC(C)C)NC(=O)[C@H](CCCNC(=N)N)NC(=O)[C@H](CCCNC(=N)N)NC(=O)[C@H](CC(C)C)NC(=O)[C@H](CC(=O)O)NC2=O)NC1=O)C(C)C (stereo partly shown) [IGF-1 A:B (H5D10Y16L17) (S═O)DPI],IC50,insulin receptor; read-out: Insulin Receptor nM IC50:,0.25 nM
CC[C@H](C)[C@H](NC(=O)CN)C(=O)N[C@H](C(=O)N[C@@H](CC(=O)O)C(=O)N[C@@H](CCC(=O)O)C(=O)N[C@H]1CSSC[C@@H]2NC(=O)[C@H](CO)NC(=O)[C@H](CCCNC(=N)N)NC(=O)[C@H](Cc3ccccc3)NC(=O)[C@H](CSSC[C@H](NC(=O)[C@H](CC(C)C)NC(=O)[C@@H](NC(=O)[C@H](CCC(=O)O)NC(=O)[C@@H]3CCCN3C(=O)CN)[C@@H](C)O)C(=O)NCC(=O)N[C@@H](C)C(=O)N[C@@H](CCC(=O)O)C(=O)N[C@@H](CC(C)C)C(=O)N[C@@H](C(C)C)C(=O)N[C@@H](CC(=O)O)C(=O)N[C@@H](C)C(=O)N[C@@H](CC(C)C)C(=O)N[C@@H](Cc3ccc(O)cc3)C(=O)N[C@@H](CC(C)C)C(=O)N[C@@H](C(C)C)C(=O)N[C@H](C(=O)NCC(=O)N[C@@H](CC(=O)O)C(=O)N[C@@H](CCCNC(=N)N)C(=O)NCC(=O)N[C@@H](Cc3ccccc3)C(=O)N[C@@H](Cc3ccc(O)cc3)C(=O)N[C@@H](Cc3ccccc3)C(=O)N[C@@H](CC(N)=O)C(=O)N[C@@H](CCCCN)C(=O)N3CCC[C@H]3C(=O)N[C@H](C(N)=O)[C@@H](C)O)CSSC[C@@H](C(=O)N[C@@H](C)C(N)=O)NC(=O)[C@H](Cc3ccc(O)cc3)NC(=O)[C@H](CCSC)NC(=O)[C@H](CCC(=O)O)NC(=O)[C@H](CC(C)C)NC(=O)[C@H](CCCNC(=N)N)NC(=O)[C@H](CCCNC(=N)N)NC(=O)[C@H](CC(C)C)NC(=O)[C@H](CC(=O)O)NC2=O)NC1=O)C(C)C [IGF-1 A:B(E10Y16L17)],IC50,IGF-1 receptor; IGF-1 Receptor IC50:,12.2 nM
CC[C@H](C)[C@H](NC(=O)CN)C(=O)N[C@H](C(=O)N[C@@H](CC(=O)O)C(=O)N[C@@H](CCC(=O)O)C(=O)N[C@H]1CSSC[C@@H]2NC(=O)[C@H](CO)NC(=O)[C@H](CCCNC(=N)N)NC(=O)[C@H](Cc3ccccc3)NC(=O)[C@H](CSSC[C@H](NC(=O)[C@H](CC(C)C)NC(=O)[C@H](Cc3c[nH]cn3)NC(=O)[C@H](CCC(N)=O)NC(=O)[C@H](CC(N)=O)NC(=O)[C@@H](NC(=O)[C@@H](N)Cc3ccccc3)C(C)C)C(=O)NCC(=O)N[C@@H](CO)C(=O)N[C@@H](Cc3c[nH]cn3)C(=O)N[C@@H](CC(C)C)C(=O)N[C@@H](C(C)C)C(=O)N[C@@H](CCC(=O)O)C(=O)N[C@@H](C)C(=O)N[C@@H](CC(C)C)C(=O)N[C@@H](Cc3ccc(O)cc3)C(=O)N[C@@H](CC(C)C)C(=O)N[C@@H](C(C)C)C(=O)N[C@H](C(=O)NCC(=O)N[C@@H](CC(=O)O)C(=O)N[C@@H](CCCNC(=N)N)C(=O)NCC(=O)N[C@@H](Cc3ccccc3)C(=O)N[C@@H](Cc3ccc(O)cc3)C(=O)N[C@@H](Cc3ccccc3)C(=O)N[C@@H](CC(N)=O)C(=O)N[C@@H](CCCCN)C(=O)N3CCC[C@H]3C(=O)N[C@H](C(N)=O)[C@@H](C)O)CSSC[C@@H](C(=O)N[C@@H](C)C(N)=O)NC(=O)[C@H](Cc3ccc(O)cc3)NC(=O)[C@H](CCSC)NC(=O)[C@H](CCC(=O)O)NC(=O)[C@H](CC(C)C)NC(=O)[C@H](CCCNC(=N)N)NC(=O)[C@H](CCCNC(=N)N)NC(=O)[C@H](CC(C)C)NC(=O)[C@H](CC(=O)O)NC2=O)NC1=O)C(C)C [IGF-1 A:In (1-17)-IGF-1 B (18-30)],Insulin Receptor % insulin (in test),insulin receptor,14.0% and 11.3% and 20.1%
same,Ratio,insulin receptor,22.6
same,Insulin Receptor % native insulin activity (0.6 nM),insulin receptor; relative to 0.6 nM,21.7% and 22.5% and 24.2%
same,IGF-1 Receptor % IGF-1 (in test),IGF-1 receptor,0.9%
"[GlyA21, ArgB31, ArgB32]insulin",IGF-1 affinity (in words),[3],enhanced IGF-1 affinity
"[LysB29-tetradecanoyl, des(B30)]insulin",potency in vivo (in words),[4],reduced potency in vivo
same,plasma half life (in words),[5],increased plasma half life
